Marks after values point to notes of the source that are not given here.
Legend:
3T3-L1 adipocytes = assay: In vitro model for anti-diabetic effect: 24-hour glucose consumption from culture medium of 3T3-L1 adipocytes; type: cell-based; details: starting glucose 300 mg/dL
Procedure: Adipose tissue is one of the major sites of postprandial glucose uptake (Watson et al., 2007). To speed up the screening of novel anti-diabetic candidate materials from natural products, an in vitro model was established by comparing the 24-hour glucose consumption from the culture medium of 3T3-L1 adipocytes.
The same amount (5×10^5 cells) of 3T3-L1 preadipocytes (BCRC #60159; Bioresource Collection and Research Center, Taiwan) was seeded and cultured in normal glucose (100 mg/dL) DMEM supplemented with 10% FBS, 100 U/mL of penicillin, and 100 μg/mL of streptomycin in a humidified atmosphere of 95% air and 5% CO2 at 37° C. When the cell density reached 100% confluence, 3T3-L1 preadipocytes were induced to differentiate by treating the culture with 450 mg/dL D-glucose, 0.32 μM insulin, 0.5 mM 3-isobutyl-1-methylxanthine and 1 μM dexamethasone for two days. Then, the culture medium of the differentiated adipocytes was changed to DMEM containing 300 mg/dL D-glucose with or without the administration of TSL extracts. After 24 hours, the anti-diabetic activity was determined by measuring the medium glucose concentration using a Roche Cobas Integra 400 Chemistry Analyzer (Roche Diagnostics, Taipei, Taiwan). The coefficient of variation (CV) of the analyzer was 0.62-0.92% within-run and 1.1-1.2% between days. To confirm whether the in vitro model was sufficient to measure the glucose-lowering effect, insulin and rosiglitazone were used as positive controls.
The methods of in vitro model for determination of anti-diabetic effect are the same as the contents described in EXAMPLE 3. To obtain the high to mid-high polar components of TSL, three different extraction methods were used to produce the following extracts, which were previously reported (Liao et al., 2007; Hsieh et al., 2005; Yang et al., 2003). TSLs were (i) extracted by reverse-osmosis of water (1:4 w/v) by boiling for 30 min and then cooling down without further boiling for two hours at room temperature (Liao et al., 2007); (ii) extracted by soaking in 100° C. boiled water (1:10 w/v) three times, each time for 30 min (Hsieh et al., 2005); and (iii) extracted by boiling in 50% v/v alcohol/water for three hours (Yang et al., 2003). Next, the leaves were removed and the remaining liquids were filtered through filter paper (Advantec, Tokyo, Japan). Afterward, the filtrated solutions were concentrated using an evaporator (rotary vacuum evaporator, vv2000; Heidolph, Schwabach, Germany) under reduced pressure and three crude extracts were obtained, which were named TS-WB (i), TS-WS (ii), and TS-E (iii); the yield of each extract was 6.03%, 5.13%, and 8.36%, respectively.

[1] = system: type 2 diabetic mouse model; assay: Anti-diabetic effect in vivo, type 2 diabetic mouse model (high-fat diet plus STZ injection); design: species or system C57BL/6J mice; details: DM + rosiglitazone 150 μg/kg/day, mean ± SD
Procedure: Eight-week-old male C57BL/6J mice were obtained from BioLASCO Technology (Charles River Taiwan Ltd.). All of the mice received standard animal care under supervision of the Institutional Animal Care and Use Committee of Kaohsiung Medical University, Taiwan. The mice were caged in an air-conditioned animal facility at 23° C. on a 12-h light/dark cycle and were maintained with free access to water and food. Animals were fed either a normal chow diet consisting (as a percentage of total kcal) of 11% fat, 65% carbohydrate, and 24% protein (Maintenance diet 1320, Altromin Spezialfutter GmbH & Co. KG, Germany) or a high-fat diet consisting of 45% fat, 35% carbohydrate, and 20% protein (D12451, Research Diets, Inc., New Brunswick, N.J., USA). After two weeks on either diet, mice were divided into four groups: (i) control (n=7); (ii) high-fat-diet mice with STZ injection (DM; n=5); (iii) high-fat-diet mice with STZ injection plus TS-SCF treatment (DM+TS-SCF; n=6); and (iv) high-fat-diet mice with STZ injection plus rosiglitazone treatment (DM+Rosig; n=4). The mice in groups ii-iv were injected with STZ (45 mg/kg), and both STZ-injected and non-injected animals were kept on their original diets (chow or high-fat) for the duration of the study. TS-SCF (150 mg/kg/day) and rosiglitazone (150 μg/kg/day) treatments via gastric gavage were begun two days after the STZ injection.
Throughout the experiment, body weight and blood glucose from the tail tip were monitored weekly. Blood glucose was detected by the ACCU-CHEK blood glucose meter (Roche Diagnostics, Taipei, Taiwan). Animals were sacrificed after eight weeks of STZ injection and were euthanized by intraperitoneal injection with the anesthetic Zoletil (10 mg/kg) (Virbac, Carros, France). Blood samples were collected from the heart at the time of sacrifice for the measurement of biochemistry data using a Roche Cobas Integra 400 Chemistry Analyzer (Roche Diagnostics, Taipei, Taiwan).
Insulin from plasma were detected by ELISA kits (Crystal Chem, Inc. Downers Grove, USA). The homeostasis model assessment of insulin resistance (HOMA-IR) was calculated using the following formula: fasting blood glucose (mg/dL)×fasting insulin (μU/mL)/405.

[2] = insulin 3.2×10^−7 to 3.2×10^−5 M

Row | Creatinine ([1]; plasma) | Molecule | decrease of the glucose concentration in the media (3T3-L1 adipocytes; rosiglitazone 12.5 to 50 μg/mL) [mg/dL] | percentage of glucose consumption (3T3-L1 adipocytes; rosiglitazone 12.5 to 50 μg/mL) | Fasting glucose ([1]; at sacrifice eight weeks after STZ) | Body weight gain [1] [g] | HDL-C [1] [mg/dL] | HOMA-IR [1] | Insulin (fasting plasma) [1] [ng/mL] | LDL-C [1] [mg/dL] | T-CHO (total cholesterol) [1] [mg/dL] | Triglycerol (plasma) [1] | ALT ([1]; plasma) [U/L] | decrease of the glucose concentration in the media (3T3-L1 adipocytes; [2]) [mg/dL] | percentage of glucose consumption (3T3-L1 adipocytes; [2])
1 | 0.54 ± 0.18^e mg/dL | CN(CCOc1ccc(CC2SC(=O)NC2=O)cc1)c1ccccn1 (centres unmarked) [rosiglitazone] | 50 to 80 | 16-27% | 205.00 ± 84.87^b mg/dL | 8.10 ± 1.95 | 126.03 ± 32.17 | 14.29 ± 4.60^b | 0.98 ± 0.77 | 9.81 ± 8.29 | 137.65 ± 32.62 | 64.94 ± 4.82^d mg/dL | 62.00 ± 27.00 | – | –
2 | – | insulin | – | – | – | – | – | – | – | – | – | – | – | 46 to 57 | 15-18%

— patent publication US10668122B2, “Extract of Toona sinensis from supercritical fluid extraction for treating diabetes and metabolic disease, the preparation method and the use thereof” (Metal Industries Research & Development Centre, priority 2009, dated 2020)
